Results published in patent US7256006B2, “Method for determining the influence of a test substance on the heart activity of a vertebrate” (Multi Channel Systems MCS GmbH, priority 2003, dated 2007).
Counter-ions that a name gives are not always drawn. Like-named read-outs stand apart in the source and are kept apart here.

Assays:
[1] = tested on: ventricular myocytes from chicken embryos; assay: extracellular MEA field potential (FPdur) measurement on spontaneously beating heart cells; assay type: cell-based
Procedure: The heart muscle cells were obtained by trypsin digestion of the isolated ventricle of chicken embryos (10-12 days after fertilization). The heart was freed of blood vessels and atria. The cells were cultured in MEM medium supplemented with 10% fetal calf serum (FCS). One to two days before the measurement, the medium was replaced by standard Tyrode solution.
The standard Tyrode solution was then replaced by a Tyrode solution with 5 μM of a test substance and the change in FPdur was determined. Thereafter, the concentration of the test substance was increased in logarithmic steps. A measurement was now taken every 10 minutes.
In measurements with quinidine, 0.5% DMSO was added to the cell Tyrode since quinidine is not water-soluble. The control experiment was also carried out with DMSO here.
In these qualitative evaluations, i.e. comparison of data from the respective control experiment and the data derived from addition of the QT-modifying substance, possible changes in the heart rate were taken into account.
For the normalized case, the FPdur value was divided by the square root of the time span (in seconds) between two action potentials.

[2] = literature reference; cited from earlier work
[3] = tested on: ventricular myocytes from chicken embryos; assay: extracellular MEA field potential (FPdur) measurement on spontaneously beating heart cells; assay type: cell-based; conditions: submicromolecular concentrations

COc1cc2c(cc1OC)CC(=O)N(CCCN(C)C[C@H]1Cc3cc(OC)c(OC)cc31)CC2 [ivabradine]
effect on the QT interval [1]: No QT prolongation

CC(C)NCC(O)c1ccc(NS(C)(=O)=O)cc1 (centres unmarked) [sotalol, N-[4-[1-hydroxy-2-(isopropylamino)ethyl]phenyl]methanesulfonamidehydrochloride]
effect on the QT interval [1]: prolongating effect
prolongation of the action potential [1]: about double

COc1ccc(CCN2CCC(Nc3nc4ccccc4n3Cc3ccc(F)cc3)CC2)cc1 [astemizol]
effect on the QT interval [1]: prolongating effect

COc1cc(N)c(Cl)cc1C(=O)NC1CCN(CCCOc2ccc(F)cc2)CC1OC (centres unmarked) [cisapride]
effect on the QT interval [1]: prolongating effect

C=C[C@H]1C[N@@]2CC[C@H]1C[C@@H]2[C@@H](O)c1ccnc2ccc(OC)cc12 [quinidine]
effect on QT [2]: QT-prolonging effect
QT prolongation (increase in FPdur) ([1]; FIG. 2B, indicated quinidine concentrations for 200 seconds): QT prolongation increasing with concentration
concentrations at which QT prolongations are shown in vitro in the MEA system ([1]; chicken, 10 min): 2000 to 7000 nM
effect on the QT interval ([1]; summary of substances tested by the inventors): prolongating effect

CC(C)(C(=O)O)c1ccc(C(O)CCCN2CCC(C(O)(c3ccccc3)c3ccccc3)CC2)cc1 (centres unmarked) [fexofenafine]
effect on the QT interval [1]: prolongating effect

Cc1cccc(CCN2CCC(C(=O)c3ccc(NS(C)(=O)=O)cc3)CC2)n1.Cl.Cl [E4031]
prolongation of the ventricular action potential [3]: over 90%

CC(C)(C)c1ccc(C(O)CCCN2CCC(C(O)(c3ccccc3)c3ccccc3)CC2)cc1 (centres unmarked) [terfenadin]
effect on the QT interval [1]: prolongating effect

CC1(C)Oc2ccc(S(=O)(=O)c3ccccc3)cc2[C@@H](N2CCCC2=O)[C@@H]1O [rilmakalim]
prolongation of the field potential [1]: did not prolong the field potential
beating frequency ([1]; substance with so far unknown effect on QT interval): reduced the frequency
